From US20220144809A1, “COMPOUNDS AND METHODS FOR THE TARGETED DEGRADATION OF ANDROGEN RECEPTOR AND ASSOCIATED METHODS OF USE” (Arvinas Operations, Inc., priority 2020, published 2022) come the findings set out here.

One may read the DC50 as the midpoint of the concentration-degradation curve. A higher DC50 goes with a less potent degrader.

In this test the test system is Androgen Receptor (AR). The experiment in a line: Androgen Receptor ELISA assay (AR degradation in LNCaP and/or VCaP cells). Format: cell-based. As to conditions: degradation of AR, 5 hours incubation, R1881 in media. The protocol: Assay for Testing AR Degradation Driven by Compounds of the Present Disclosure.
Androgen Receptor ELISA Assay. Compounds were evaluated in the following assay in LNCaP and/or VCaP cells utilizing similar protocols. The protocols used with VCaP cells are described below. The androgen receptor ELISA assay was performed using PathScan AR Sandwich ELISA (Cell Signaling Catalog#12850) according to the following assay steps.
VCaP cells were seeded at 40,000 cells/well at a volume of 100 μL/well in VCaP assay medium [Phenol red free RPMI (Gibco Cat#11835-030); 5% Charcoal Stripped (Dextran treated) FBS (Omega Scientific, Cat#FB-04); 1% penstrep (Life Technologies, Gibco Cat#: 10378-016)] in Corning 3904 plates. The cells were grown for a minimum of 3 days.
First, cells were dosed with compounds diluted in […]—in a polypropylene plate avoiding the use of outer columns according to the following protocol: (1)(i) 1000× stock plate in DMSO was made; (ii) 20 mM stock diluted 1/6.7 with DMSO (5 μL+28.3 μL DMSO)=3 mM into row H; (iii) serial dilutions in ½ log doses (10 μL of bifunctional compound+20 μL DMSO) was performed from row H towards row B with row A being reserved for DMSO; (iv) 7 doses total (final concentration in this 1000× plate will be 3 mM, 1 mM, 333 μM, 111 μM, etc). (2)(i) A 10× stock plate in media was made; (ii) 2.5 μL of the 1000× stock was trasnferred to a new 10× stock plate (use 12 channel pipet, start at A (DMSO control) work thru H. When 247.5 μL of media was added to this plate, it served as a 10× stock; (iii) made media+1 nM R1881 for making 10× stock plate; (iv) added 247.5 μL of media with 1 nM R1881 to each well of the 10× stock plate, mix.
Then 22 μL of 10× stock was added to cells and incubated for 5 hours. 1× Cell Signaling Cell lysis buffer was made (Catalogue #9803; comes with the kit) to have […], and was kept on ice. Media was aspirated, and 100 μL 1× cell lysis buffer/well was added. The cells were placed on a shaker located in a cold room for 10 minutes and shaken at speed 7. The lysate mixture was mix and 20 μL transferred to 100 μl of Diluent in ELISA plate (0.15 μg/ml-0.075 μg/ml). The lysate-diluent mixture was store at 4° C. overnight on a shaker located in a cold room at speed 5 (gentle swirl).
The lysate-diluent mixture was shaken for 30 minutes at 37° C. The mouse AR antibody, anti-mouse antibody, TMB, and STOP solution were allowed to come to room temperature. The 1×ELISA buffer included in kit was made and loaded in reservoir. Media from the plate was discarded, the ELISA plate was tapped hard on paper towel, and washed 4×200 μl ELISA wash buffer using a plate washer for the first three washes and an eight channel aspirator for the fourth wash to more thoroughly aspirate the solution.
Next, 100 μL/well of mouse AR detection Ab was added; the plate was covered and shaken at 37° C. for 1 hour; media was discarded from the plates, the plates tapped on a paper towel and washed four times with 200 μL ELISA wash buffer with a plate washer for the first three washes and an eight channel aspirator for the fourth wash; 100 μL/well of anti-mouse—HRP conjugated Ab (comes with the kit) was added; the plates wascover and shaken at 37° C. for 30 minutes; the TMB reagent was allowed to come to room temperature; the media from the plate was discarded, the plates tapped on paper towel, and washed four times with 200 μL ELISA wash buffer with a plate washer for the first three washes and an eight channel aspirator for the fourth wash; plates were tapped on paper towl; 100 μL TMB was added to each well and the plate shaken for 2 minutes—while watching color. STOP solution (100 μL) was added when light blue color developed. The plates were shake and read at 450 nm.
Data was analyzed and plotted using GraphPad Prism software. Exemplary compounds of Table 1 were assayed and the data shown below in Table 2. […]
For orientation: In an ELISA, binding on a coated surface is turned into a signal by an enzyme label.
With `N#Cc1ccc(N2C(=O)C3(CCC3)N(c3ccc(N4CCC(CN5CCN(c6ccc7c(c6)C(=O)N(C6CCC(=O)NC6=O)C7=O)CC5)CC4)c(F)c3)C2=S)cc1Cl` (stereo not drawn) [Compound 5, 2-chloro-4-(5-(4-(4-((4-(2-(2,6-dioxopiperidin-3-yl)-1,3-dioxoisoindolin-5-yl)piperazin-1-yl)methyl)piperidin-1-yl)-3-fluorophenyl)-8-oxo-6-thioxo-5,7-diazaspiro[3.4]octan-7-yl)benzonitrile], the 50% degradation concentration (DC50) was less than 1 nM and the “Dmax Code” value was “A (A≥70)”.

On to `CC(C)N(C[C@H]1C[C@H](Oc2ccc(N3C(=S)N(c4cnc(C#N)c(C(F)(F)F)c4)C(=O)C34CCC4)cn2)C1)[C@H]1C[C@H](Oc2ccc3c(c2)C(=O)N(C2CCC(=O)NC2=O)C3=O)C1` (stereo partly drawn) [Compound 8, 5-(5-(6-((1R,3r)-3-((((1r,3R)-3-((2-(2,6-dioxopiperidin-3-yl)-1,3-dioxoisoindolin-5-yl)oxy)cyclobutyl)(isopropyl)amino)methyl)cyclobutoxy)pyridin-3-yl)-8-oxo-6-thioxo-5,7-diazaspiro[3.4]octan-7-yl)-3-(trifluoromethyl)picolinonitrile], for which the DC50 was 1 to 10 nM and the “Dmax Code” value is on record as “C (C<50)”.

As for `COc1cc(N2C(=O)C3(CCC3)N(c3ccc(N4CCC(CN5CCN(c6ccc7c(c6)C(=O)N(C6CCC(=O)NC6=O)C7=O)CC5)CC4)c(F)c3)C2=S)ccc1C#N` (stereo not drawn) [Compound 6, 4-(5-(4-(4-((4-(2-(2,6-dioxopiperidin-3-yl)-1,3-dioxoisoindolin-5-yl)piperazin-1-yl)methyl)piperidin-1-yl)-3-fluorophenyl)-8-oxo-6-thioxo-5,7-diazaspiro[3.4]octan-7-yl)-2-methoxybenzonitrile], the DC50 lay within 1 to 10 nM and the “Dmax Code” value is on record as “A (A≥70)”.

For the compound `CC(C)N(CC1CCN(c2ccc(CCn3c(=O)n(-c4ccc(C#N)c(C(F)(F)F)c4)c4ccccc43)cc2)CC1)[C@H]1C[C@H](Oc2ccc3c(c2)C(=O)N(C2CCC(=O)NC2=O)C3=O)C1` (stereo partly drawn) [Compound 17, 4-(3-(4-(4-((((1r,3r)-3-((2-(2,6-dioxopiperidin-3-yl)-1,3-dioxoisoindolin-5-yl)oxy)cyclobutyl)(isopropyl)amino)methyl)piperidin-1-yl)phenethyl)-2-oxo-2,3-dihydro-1H-benzo[d]imidazol-1-yl)-2-(trifluoromethyl)benzonitrile], the DC50 lay within 10 to 100 nM and the “Dmax Code” value is given as “C (C<50)”.

Regarding `N#Cc1ncc(N2C(=O)C3(CCC3)N(c3ccc(OC4CCN(CC5CCN(c6ccc7c(c6)C(=O)N(C6CCC(=O)NC6=O)C7=O)CC5)CC4)nc3)C2=S)cc1C(F)(F)F` (stereo not drawn) [Compound 12, 5-(5-(6-((1-((1-(2-(2,6-dioxopiperidin-3-yl)-1,3-dioxoisoindolin-5-yl)piperidin-4-yl)methyl)piperidin-4-yl)oxy)pyridin-3-yl)-8-oxo-6-thioxo-5,7-diazaspiro[3.4]octan-7-yl)-3-(trifluoromethyl)picolinonitrile], the DC50 lay in the range of 1 to 10 nM and the “Dmax Code” value is reported as “B (50≤B<70)”.

In the case of `CCN(CC1CCN(c2ccc(CN3C(=S)N(c4ccc(C#N)c(C(F)(F)F)c4)C(=O)C3(C)C)cn2)CC1)[C@H]1C[C@H](Oc2ccc3c(c2)C(=O)N(C2CCC(=O)NC2=O)C3=O)C1` (stereo partly drawn) [Compound 4, 4-(3-((6-(4-((((1r,3r)-3-((2-(2,6-dioxopiperidin-3-yl)-1,3-dioxoisoindolin-5-yl)oxy)cyclobutyl)(ethyl)amino)methyl)piperidin-1-yl)pyridin-3-yl)methyl)-4,4-dimethyl-5-oxo-2-thioxoimidazolidin-1-yl)-2-(trifluoromethyl)benzonitrile], the DC50 was less than 1 nM and the “Dmax Code” value is given as “C (C<50)”.

For the compound `CC(C)N(CC1CCN(c2ccc(Cn3c(=O)n(-c4ccc(C#N)c(C(F)(F)F)c4)c4ccccc43)cc2)CC1)[C@H]1C[C@H](Oc2ccc3c(c2)C(=O)N(C2CCC(=O)NC2=O)C3=O)C1` (stereo partly drawn) [Compound 25, 4-(3-(4-(4-((((1r,3r)-3-((2-(2,6-dioxopiperidin-3-yl)-1,3-dioxoisoindolin-5-yl)oxy)cyclobutyl)(isopropyl)amino)methyl)piperidin-1-yl)benzyl)-2-oxo-2,3-dihydro-1H-benzo[d]imidazol-1-yl)-2-(trifluoromethyl)benzonitrile], the DC50 was not below 100 nM and the “Dmax Code” value is listed as “C (C<50)”.

Regarding `Cc1c(C#N)c(-c2ccc(C#N)cc2)c(C)n1Cc1ccc(OCCOCCOCCN2CCC(CN3CCN(c4ccc5c(c4)C(=O)N(C4CCC(=O)NC4=O)C5=O)CC3)CC2)cc1` (stereo not drawn) [Compound 21, 4-(4-cyanophenyl)-1-(4-(2-(2-(2-(4-((4-(2-(2,6-dioxopiperidin-3-yl)-1,3-dioxoisoindolin-5-yl)piperazin-1-yl)methyl)piperidin-1-yl)ethoxy)ethoxy)ethoxy)benzyl)-2,5-dimethyl-1H-pyrrole-3-carbonitrile], the DC50 is not below 100 nM and the “Dmax Code” value was “C (C<50)”.

As for `N#Cc1ncc(N2C(=O)C3(CCC3)N(c3ccc(N4CCC(CN5CCN(c6ccc7c(c6)C(=O)N(C6CCC(=O)NC6=O)C7)CC5)CC4)cc3)C2=S)cc1Cl` (stereo not drawn) [Compound 2, 3-chloro-5-(5-(4-(4-((4-(2-(2,6-dioxopiperidin-3-yl)-3-oxoisoindolin-5-yl)piperazin-1-yl)methyl)piperidin-1-yl)phenyl)-8-oxo-6-thioxo-5,7-diazaspiro[3.4]octan-7-yl)picolinonitrile], the 50% degradation concentration (DC50) was less than 1 nM and the “Dmax Code” value was “A (A≥70)”.

Take `CC(C)N(CC1CCN(Cc2ccc(-n3c(=O)n(-c4ccc(C#N)c(C(F)(F)F)c4)c4ccccc43)cc2)CC1)[C@H]1C[C@H](Oc2ccc3c(c2)C(=O)N(C2CCC(=O)NC2=O)C3=O)C1` (stereo partly drawn) [Compound 15, 4-(3-(4-((4-((((1r,3r)-3-((2-(2,6-dioxopiperidin-3-yl)-1,3-dioxoisoindolin-5-yl)oxy)cyclobutyl)(isopropyl)amino)methyl)piperidin-1-yl)methyl)phenyl)-2-oxo-2,3-dihydro-1H-benzo[d]imidazol-1-yl)-2-(trifluoromethyl)benzonitrile]: the DC50 is 1 to 10 nM and the “Dmax Code” value is recorded as “C (C<50)”.

Regarding `Cc1c(C#N)c(-c2ccc(C#N)cc2)c(C)n1Cc1ccc(N2CCC(CN3CCN(c4ccc5c(c4)C(=O)N(C4CCC(=O)NC4=O)C5=O)CC3)CC2)cc1` (stereo not drawn) [Compound 18, 4-(4-cyanophenyl)-1-(4-(4-((4-(2-(2,6-dioxopiperidin-3-yl)-1,3-dioxoisoindolin-5-yl)piperazin-1-yl)methyl)piperidin-1-yl)benzyl)-2,5-dimethyl-1H-pyrrole-3-carbonitrile], the DC50 was not below 100 nM and the “Dmax Code” value was “C (C<50)”.

For `CCN(CC1CCN(CCOc2ccc(CN3C(=S)N(c4ccc(C#N)c(C(F)(F)F)c4)C(=O)C3(C)C)cn2)CC1)[C@H]1C[C@H](Oc2ccc3c(c2)C(=O)N(C2CCC(=O)NC2=O)C3=O)C1` (stereo partly drawn) [Compound 16, 4-(3-((6-(2-(4-((((1r,3r)-3-((2-(2,6-dioxopiperidin-3-yl)-1,3-dioxoisoindolin-5-yl)oxy)cyclobutyl)(ethyl)amino)methyl)piperidin-1-yl)ethoxy)pyridin-3-yl)methyl)-4,4-dimethyl-5-oxo-2-thioxoimidazolidin-1-yl)-2-(trifluoromethyl)benzonitrile], the DC50 was 1 to 10 nM and the “Dmax Code” value is “C (C<50)”.
